No end group written: not given here.

One assay has as its target PAR1 (Homo sapiens (Human), UniProt P25116). Kind of assay: FLIPR assay, PAR1 agonist peptide response in PAR1/PAR4-expressing HEK293 cells. The assay is classed as cell-based. Conditions: routine test of agonist response, FLIPR assay of Example A. The text has this: HEK293 cells stably expressing PAR4 were generated by a standard method of transfection of human PAR4 (F2R23) cDNA expression vector and selected based on PAR4 protein expression or mRNA expression. […] These cells also express endogenous PAR1 and can elicit calcium signal upon stimulation with PAR1 agonist peptide. Therefore, the same cells were also used to determine selectivity against PAR1 and agonist activity for both receptors. Cells from HEK293 PAR4 Clone 1.2A (BMS Arctic ID 383940) were propagated and used for calcium mobilization studies.
FLIPR-based calcium mobilization assay in HEK293 cells was used to measure PAR4 antagonism, agonism, and selectivity against PAR1. The activity of the PAR4 antagonists of the present invention were tested in PAR4 expressing cells by monitoring H-Ala-Phe(4-F)-[…]NH2-induced intracellular calcium mobilization. Counter screens for agonist activity and PAR1 antagonist activity were also performed. Briefly, PAR1/PAR4-expressing HEK293 cells were grown in DMEM (Life Technology, Grand Island, N.Y.) containing 10% heat-inactivated FBS, 1% Penicillin-Streptomycin, 10 μg/mL blasticidin, and 100 μg/mL Zeocin at 37° C. with 5% CO2. […] Changes in fluorescence intensity were measured using a Functional Drug Screening System (FDSS, Hamamatsu, Japan) to determine agonist activities. […]

The target in another assay is PAR4 (Homo sapiens (Human), UniProt Q96RI0). Briefly: FLIPR assay in PAR4-expressing HEK293 cells (PAR4 antagonist activity). Format: cell-based. Conditions: inhibition of H-Ala-Phe(4-F)-Pro-Gly-Trp-Leu-Val-Lys-Asn-Gly-NH2-induced intracellular calcium mobilization.
Chain of PAR4 (Q96RI0 18-385): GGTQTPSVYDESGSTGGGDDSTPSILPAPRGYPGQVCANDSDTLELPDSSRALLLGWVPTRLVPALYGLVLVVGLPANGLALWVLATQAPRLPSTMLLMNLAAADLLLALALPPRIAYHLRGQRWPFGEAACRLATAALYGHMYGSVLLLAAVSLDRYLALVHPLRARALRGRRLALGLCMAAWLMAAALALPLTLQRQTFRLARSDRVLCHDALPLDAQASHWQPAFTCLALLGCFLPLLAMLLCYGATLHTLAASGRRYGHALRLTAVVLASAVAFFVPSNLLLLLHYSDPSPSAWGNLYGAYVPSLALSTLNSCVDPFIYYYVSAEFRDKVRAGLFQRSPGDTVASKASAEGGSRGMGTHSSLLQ

Chain of PAR1 (P25116 22-425): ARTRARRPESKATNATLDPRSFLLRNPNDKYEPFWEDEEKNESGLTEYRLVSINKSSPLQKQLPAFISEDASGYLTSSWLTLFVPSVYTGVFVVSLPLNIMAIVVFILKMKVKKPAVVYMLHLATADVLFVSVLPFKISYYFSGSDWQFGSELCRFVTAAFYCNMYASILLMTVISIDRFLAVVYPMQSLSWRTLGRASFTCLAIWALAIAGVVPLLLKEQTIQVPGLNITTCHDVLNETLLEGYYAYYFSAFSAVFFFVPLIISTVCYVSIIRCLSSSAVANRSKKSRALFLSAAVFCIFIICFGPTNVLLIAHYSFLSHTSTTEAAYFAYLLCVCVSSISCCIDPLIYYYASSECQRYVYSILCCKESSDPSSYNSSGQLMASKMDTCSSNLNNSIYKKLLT

Consider SFFLRR [SFFLRR], for which, at PAR1, the half-maximal effective concentration (EC50) is roughly 2000 nM.
For the molecule `COc1cc(OCc2cccc(N(C)C(=O)c3ccccc3)c2)c2cc(-c3cn4nc(OC)sc4n3)oc2c1` [Example 83, N-(3-(((6-methoxy-2-(2-methoxyimidazo[2,1-b][1,3,4]thiadiazol-6-yl)benzofuran-4-yl)oxy)methyl)phenyl)-N-methylbenzamide], the EC50 at PAR4 came out at 4.1 nM.
Same read-out and setting: for `COc1cc(OCc2cccc(NC(=O)c3cccnc3Cl)c2)c2cc(-c3cn4nc(OC)sc4n3)oc2c1` [Example 58] the value was 0.74 nM; for `COc1cc(OCc2cccc(NC(=O)c3cc(Cl)cc(Cl)c3)c2)c2cc(-c3cn4nc(OC)sc4n3)oc2c1` [Example 19], 3.3 nM.
With `COc1cc(OCc2cccc(NC(=O)c3cccc(Cl)c3F)c2)c2cc(-c3cn4nc(OC)sc4n3)oc2c1` [Example 151], at PAR4, the EC50 came to 3.4 nM.
For `COc1cc(OCc2cccc(NC(=O)c3ccco3)c2)c2cc(-c3cn4nc(OC)sc4n3)oc2c1` [Example 134], at PAR4, the EC50 came to 5 nM.
With `COc1cc(OCc2cccc(NC(=O)c3csc(-c4ccccc4)n3)c2)c2cc(-c3cn4nc(OC)sc4n3)oc2c1` [Example 72], the EC50 on PAR4 amounted to 2.2 nM.
Consider `COc1cc(OCc2cccc(NC(=O)c3ccc(I)cc3)c2)c2cc(-c3cn4nc(OC)sc4n3)oc2c1` [Example 39], for which, on PAR4, the EC50 was 2.4 nM.
As to `COc1cc(OCc2cccc3c2CCN3C(=O)c2cc(C)cc(C(F)(F)F)c2)c2cc(-c3cn4nc(OC)sc4n3)oc2c1` [Example 125], at PAR4, the half-maximal effective concentration (EC50) was found to be 3.9 nM.
`COc1cc(OCc2cccc(NC(=O)c3ccccc3OC(C)=O)c2)c2cc(-c3cn4nc(OC)sc4n3)oc2c1` [Example 8]: the EC50 on PAR4 worked out at 1.6 nM.
Take `COc1cc(OCc2cccc(NC(=O)c3cc(Cl)nc(Cl)c3)c2)c2cc(-c3cn4nc(OC)sc4n3)oc2c1` [Example 55]: the EC50 on PAR4 was 1.1 nM.
On to `COc1cc(OCc2cccc(NC(=O)c3cncnc3)c2)c2cc(-c3cn4nc(OC)sc4n3)oc2c1` [Example 57], for which the EC50 on PAR4 stood at 1.8 nM.
Consider `COc1cc(OCc2cccc(NC(=O)c3cc(Cl)cc(OCc4ccccc4)c3)c2)c2cc(-c3cn4nc(OC)sc4n3)oc2c1` [Example 67], for which, at PAR4, the EC50 was 680 nM.

As a reminder, the EC50 is the concentration that produces a half-maximal response.

Source of the values: US10214544B2, “Imidazopyridazine and imidazothiadiazole compounds” (Universite de Montreal, priority 2015, dated 2019).
